In the test the test system is Plasmodium berghei. Briefly: Luciferase/luciferin-expressing antifolate-resistant parasites were used to infect a culture of HepG2 cells that were pre-incubated with compounds. Infected hepatocytes emit light due to the luciferase reaction. Assay results are presented as the percent inhibition of light emission compared to control. […]. Type of test: functional. Particulars: sporozoite; for IC90: read-out: LUCIFERASE INFECTION ASSAY - IC90.

Setting [1] is: read-out: LUCIFERASE INFECTION ASSAY - IC50.

The record followed here is ChEMBL document CHEMBL4483862, “Open-source discovery of chemical leads for next-generation chemoprotective antimalarials” (2018).

A word on the IC50: it is the concentration that inhibits the measured activity by half. A word on the IC90: it is the concentration needed for an effect of 90%. For the molecule `CCCNC(=O)c1nnsc1S(=O)(=O)c1ccc(Cl)cc1`, the 90% effect concentration (IC90) is over 9.54 µM. For the same molecule, the IC50 (HEPG2TOX_HILL_SLOPE 12.7, HEPG2TOX_R_SQUARED 0.778, PBLUC_HILL_SLOPE 22.3, PBLUC_R_SQUARED 0.0764, read-out: LUCIFERASE INFECTION ASSAY - IC50) amounted to 9.02 µM.
Take `CCC(C)NC(=O)c1c(NC(=O)c2cccc(C)c2)nc2ccc(C)cn12` (stereo unspecified): the IC90 was determined as 6.6 µM. The IC50 (HEPG2TOX_HILL_SLOPE 8.22, HEPG2TOX_R_SQUARED 0.0887, PBLUC_HILL_SLOPE 4.24, PBLUC_R_SQUARED 0.444, read-out: LUCIFERASE INFECTION ASSAY - IC50) was determined as 3.93 µM.
As for `Cn1ccnc1SCc1n[nH]c(=O)c2ccccc12`, the IC90 stood at 8.93 µM. For the same molecule, the half-maximal inhibitory concentration (IC50) (HEPG2TOX_HILL_SLOPE 15.9, HEPG2TOX_R_SQUARED 0.771, PBLUC_HILL_SLOPE 3.2, PBLUC_R_SQUARED 0.661, read-out: LUCIFERASE INFECTION ASSAY - IC50) worked out at 4.5 µM.
As for `CC(=O)Nc1cccc(-n2nnnc2Sc2ccc([N+](=O)[O-])cc2C#N)c1`, the IC90 stood at 9.5 µM. Moreover, where the note is “PBLUC_HILL_SLOPE 17.4, PBLUC_R_SQUARED 0.386, read-out: LUCIFERASE INFECTION ASSAY - IC50”, the IC50 was 8.38 µM.
As to `Fc1cccc(F)c1/C=N/c1ccccc1N1CCOCC1`, the IC90 is over 10 µM. For the same molecule, under setting [1], the IC50 was over 10 µM.
Consider `Cc1cccc(NC(=O)CN2C(=O)/C(=C(/C#N)c3nc4ccccc4[nH]3)c3ccccc32)c1`, for which the IC90 is over 10 µM. The half-maximal inhibitory concentration (IC50) (FFLUC_HILL_SLOPE 4.46, FFLUC_R_SQUARED 0.474, HEPG2TOX_HILL_SLOPE 6.44, HEPG2TOX_R_SQUARED 0.532, PBLUC_HILL_SLOPE 2.02, PBLUC_R_SQUARED 0.59, read-out: LUCIFERASE INFECTION ASSAY - IC50) came to 5.68 µM.
Regarding `CC(C)(C)c1ccc(-c2nnc(SCc3c(Cl)cccc3Cl)n2Cc2ccco2)cc1`, the IC90 is over 6.99 µM. The IC50 under setting [1] was 3.43 µM.
With `COc1ccc(-c2cnc3ccc(NCc4cccc(Cl)c4)nn23)cn1`, the concentration for an effect of 90% (IC90) came out at 7.71 µM. Besides, under “PBLUC_HILL_SLOPE 5.4, PBLUC_R_SQUARED 0.229, read-out: LUCIFERASE INFECTION ASSAY - IC50”, the IC50 came to 5.13 µM.
In the case of `O=C1C=C/C(=N\Nc2ccc3ncsc3c2)c2cccnc21`, the 90% effect concentration (IC90) was over 10 µM. For the same molecule, the IC50 (HEPG2TOX_HILL_SLOPE 2.28, HEPG2TOX_R_SQUARED 0.978, PBLUC_HILL_SLOPE 13.8, PBLUC_R_SQUARED 0.454, read-out: LUCIFERASE INFECTION ASSAY - IC50) is 8.95 µM.
In the case of `FC(F)(F)c1nc2ccccc2n2c(-c3ccc(Cl)cc3)nnc12`, the IC90 amounted to 3.27 µM. Moreover, the IC50 (HEPG2TOX_HILL_SLOPE 11.7, HEPG2TOX_R_SQUARED 0.937, PBLUC_HILL_SLOPE 49.4, PBLUC_R_SQUARED 0.195, read-out: LUCIFERASE INFECTION ASSAY - IC50) came out at 3.13 µM.
In the case of `COc1ccc(NC(=O)Nc2ccc3nc(-c4ccccc4OC)nn3c2)cc1OC`, the IC90 is over 10 µM. The IC50 under setting [1] is over 10 µM.
Regarding `Cc1ccc(CNC(=O)c2cc(-c3ccccc3)nn2-c2ccccc2)cc1`, the IC90 was over 10 µM. For the same molecule, the IC50 (FFLUC_HILL_SLOPE 15.6, FFLUC_R_SQUARED 0.349, read-out: LUCIFERASE INFECTION ASSAY - IC50) was over 10 µM.
`COc1ccc(OCCCC(=O)N(c2nc3ccccc3s2)c2cc(C(F)(F)F)ccc2Cl)cc1`: the IC90 is over 10 µM. In addition, the IC50 under setting [1] was over 10 µM.
Consider `O=C(Nc1ccc(F)cc1F)Nc1cc(Cl)sc1Cl`, for which the IC90 was over 10.2 µM. In addition, the IC50 (PBLUC_HILL_SLOPE 1.97, PBLUC_R_SQUARED 0.405, read-out: LUCIFERASE INFECTION ASSAY - IC50) came out at 6.86 µM.
`CN1/C(=C/C=C2c3ccccc3-c3ccccc32)C=Cc2ccccc21`: the 90% effect concentration (IC90) was over 9.9 µM. The IC50 (PBLUC_HILL_SLOPE 1.22, PBLUC_R_SQUARED 0.219, read-out: LUCIFERASE INFECTION ASSAY - IC50) turned out to be 8.03 µM.
With `O=C(Nc1cccc(F)c1)Nc1ccc2nc(Cc3ccccc3)nn2c1`, the IC90 is 1.35 µM. The IC50 (HEPG2TOX_HILL_SLOPE 1.95, HEPG2TOX_R_SQUARED 0.988, PBLUC_HILL_SLOPE 12.2, PBLUC_R_SQUARED 0.455, read-out: LUCIFERASE INFECTION ASSAY - IC50) is 1.12 µM.
As to `CN(C)c1ccc(C(=O)N/N=C/c2cc(Cl)cc(Cl)c2O)cc1`, the IC90 is over 9.37 µM. In addition, the IC50 under setting [1] is over 9.37 µM.
As to `Cc1cc(C(=O)NCCc2cccc(F)c2)c(C)n1C(C)C`, the IC90 was determined as 0.0364 µM. Moreover, where the note is “PBLUC_HILL_SLOPE 3.76, PBLUC_R_SQUARED 0.418, read-out: LUCIFERASE INFECTION ASSAY - IC50”, the IC50 was determined as 0.0203 µM.
`O=C(COCc1nc2ccccc2s1)NCc1ccc(Cn2cccn2)cc1`: the 90% effect concentration (IC90) is over 10 µM. Moreover, under setting [1], the half-inhibitory concentration (IC50) was over 10 µM.
Take `C/C(=N\Nc1nc2ccccc2o1)c1ccc2ccccc2c1O`: the IC90 was over 10 µM. Moreover, where the note is “HEPG2TOX_HILL_SLOPE 7.42, HEPG2TOX_R_SQUARED 0.127, PBLUC_HILL_SLOPE 13.1, PBLUC_R_SQUARED 0.536, read-out: LUCIFERASE INFECTION ASSAY - IC50”, the IC50 turned out to be 8.85 µM.
For the molecule `COc1ccc(NC(=O)C2(C)Cc3c(-c4cccc(NC(C)=O)c4)ccnc3O2)cc1` (stereo unspecified), the IC90 was determined as 3.58 µM. The IC50 (HEPG2TOX_HILL_SLOPE 2.96, HEPG2TOX_R_SQUARED 0.838, PBLUC_HILL_SLOPE 2.85, PBLUC_R_SQUARED 0.605, read-out: LUCIFERASE INFECTION ASSAY - IC50) is 1.66 µM.
`O=C(OCCSc1ccc([N+](=O)[O-])c2nonc12)c1cccc(C(F)(F)F)c1`: the IC90 is over 7.98 µM. Also, the IC50 (FFLUC_HILL_SLOPE 3.07, FFLUC_R_SQUARED 0.747, HEPG2TOX_HILL_SLOPE 10.3, HEPG2TOX_R_SQUARED 0.666, PBLUC_HILL_SLOPE 2.08, PBLUC_R_SQUARED 0.429, read-out: LUCIFERASE INFECTION ASSAY - IC50) was 3.94 µM.
Take `Cc1nc(N2N=C3/C(=C/c4ccc(F)cc4)CCCC3C2c2ccc(F)cc2)sc1C(=O)N(C)C` (stereo unspecified): the 90% effect concentration (IC90) is over 10 µM. Also, under setting [1], the IC50 was over 10 µM.
In the case of `C/C(=N\N1CCCCC1)c1ccccc1O`, the IC90 was over 10 µM. Further, under setting [1], the concentration for half-maximal inhibition (IC50) was over 10 µM.
Regarding `OC[C@H]1O[C@@H](c2nc(-c3ccc4c(c3)CCO4)no2)[C@H](O)[C@@H]1O`, the concentration for an effect of 90% (IC90) is over 10.3 µM. The IC50 under setting [1] was over 10.3 µM.
In the case of `Cc1nn(Cc2nc3ccccc3s2)c(C)c1S(=O)(=O)N(C)Cc1ccco1`, the IC90 was over 10 µM. In addition, under setting [1], the IC50 is over 10 µM.
Regarding `O=c1c(C(F)(F)F)cccn1Cc1csc(COc2ccc(Cl)cc2)n1`, the IC90 is over 10 µM. Moreover, the IC50 (HEPG2TOX_HILL_SLOPE 13.6, HEPG2TOX_R_SQUARED 0.877, PBLUC_HILL_SLOPE 2.65, PBLUC_R_SQUARED 0.537, read-out: LUCIFERASE INFECTION ASSAY - IC50) is 7.31 µM.
Take `CNc1nc2cnc(Nc3cc(C(F)(F)F)ccc3F)cc2n1Cc1ccccc1`: the IC90 is over 10 µM. The IC50 under setting [1] is over 10 µM.
On to `O=C(Nn1cnc2ccccc21)c1ccccc1Nc1ccc(SC(F)F)cc1`, for which the IC90 is over 10 µM. Besides, the IC50 (PBLUC_HILL_SLOPE 11.6, PBLUC_R_SQUARED 0.0782, read-out: LUCIFERASE INFECTION ASSAY - IC50) worked out at 8.68 µM.
On to `N#Cc1ccc(-c2cnc3ccc(NCc4ccc(S(N)(=O)=O)cc4)nn23)cc1`, for which the IC90 stood at 3.66 µM. In addition, the IC50 (HEPG2TOX_HILL_SLOPE 8.58, HEPG2TOX_R_SQUARED 0.551, PBLUC_HILL_SLOPE 11.6, PBLUC_R_SQUARED 0.236, read-out: LUCIFERASE INFECTION ASSAY - IC50) is 3.03 µM.
As to `COc1ccc(OC)c(NC(=O)C2(C)CCN2Cc2ccc(C(C)C)cc2)c1` (stereo unspecified), the IC90 was over 8.63 µM. Further, under setting [1], the concentration for half-maximal inhibition (IC50) was over 8.63 µM.
For `OCCCNc1nn2c(-c3cccc(F)c3)cnc2s1`, the IC90 was over 11.3 µM. Under setting [1], the IC50 is over 11.3 µM.
As for `CN(C(=O)c1cc(-c2ccccc2OCc2ccccc2)ncn1)c1ccccc1`, the IC90 came to 5 µM. Further, under “HEPG2TOX_HILL_SLOPE 0.0237, HEPG2TOX_R_SQUARED 0.016, PBLUC_HILL_SLOPE 4.42, PBLUC_R_SQUARED 0.717, read-out: LUCIFERASE INFECTION ASSAY - IC50”, the 50% inhibitory concentration (IC50) was found to be 3.04 µM.
With `Cc1ccc(C(CN2CCOCC2)NC(=O)c2occc2-c2ccccc2)cc1` (stereo unspecified), the 90% effect concentration (IC90) was over 10 µM. In addition, the 50% inhibitory concentration (IC50) (HEPG2TOX_HILL_SLOPE 140, HEPG2TOX_R_SQUARED 0.302, PBLUC_HILL_SLOPE 0.784, PBLUC_R_SQUARED 0.306, read-out: LUCIFERASE INFECTION ASSAY - IC50) is 8.27 µM.
`FC(F)(F)Oc1ccc(Nc2nnc(Sc3ncnc4ccsc34)s2)cc1`: the IC90 was over 10 µM. Besides, the IC50 (PBLUC_HILL_SLOPE 4.22, PBLUC_R_SQUARED 0.601, read-out: LUCIFERASE INFECTION ASSAY - IC50) came out at 6.4 µM.
For the molecule `S=C(N/N=C/c1ccccn1)Nc1ccc(Cl)c(Cl)c1`, the IC90 was over 10.1 µM. Moreover, the IC50 (HEPG2TOX_HILL_SLOPE 7.56, HEPG2TOX_R_SQUARED 0.274, PBLUC_HILL_SLOPE 6.84, PBLUC_R_SQUARED 0.4, read-out: LUCIFERASE INFECTION ASSAY - IC50) was found to be 7.65 µM.
On to `CN1N=C2c3ccccc3CCC2C1c1ccc(C(F)(F)F)cc1` (stereo unspecified), for which the concentration for an effect of 90% (IC90) was determined as 1.66 µM. The IC50 (PBLUC_HILL_SLOPE 1.95, PBLUC_R_SQUARED 0.843, read-out: LUCIFERASE INFECTION ASSAY - IC50) worked out at 0.537 µM.
Turning to `O=C(N/N=C(\Cc1ncc[nH]1)c1ccccc1)c1cccs1`, the IC90 turned out to be 4.17 µM. Further, the IC50 (HEPG2TOX_HILL_SLOPE 1.23, HEPG2TOX_R_SQUARED 0.975, PBLUC_HILL_SLOPE 4.09, PBLUC_R_SQUARED 0.691, read-out: LUCIFERASE INFECTION ASSAY - IC50) was found to be 2.44 µM.
